Assay results from patent US11076595B2, “1-(n,n-disubstituted carbamoyl) 4-(substituted sulfonyl)triazolin-5-one derivative, 4-(n,n-disubstituted carbamoyl) 1-(substituted sulfonyl)triazolin-5-one derivative, and herbicide containing said derivative as active ingredient” (HOKKO CHEMICAL INDUSTRY CO., LTD., priority 2017, dated 2021).

Columns and labels:
Format in all cases: in vivo
Echinochloa crus-galli [1] = assay: Test Example 1: herbicidal effect test by soil treatment in paddy field; conditions: 120 g/10a, paddy soil treatment just after sowing, 14 days after treatment
Description: (§1) A Wagner pot having an area of 1/10000 are was filled with paddy field soil and after adding water, a chemical fertilizer (N:P:K=17:17:17) was mixed, followed by puddling. Thereafter, 30 grains of each of Echinochloa crus-galli, broad-leaved weed (Lindernia pyxidaria and Monochoria vaginalis) and Scirpus juncoides seeds were sown to a depth of 0 to 1 cm. Immediately after the sowing, the pot was flooded, and the depth of water was kept at about 3 cm. The pot was subsequently managed in a glass greenhouse. Just after that, an emulsifiable concentrate prepared according to Formulation Example 5 by using the compound shown in Table 5 below was diluted with water, and a predetermined amount of the water-diluted formulation was added dropwise. The application rate of the active ingredient, by conversion, corresponded to 120 g per 10 are.
(§2) This test was performed with two replications per one formulation concentration plot, and 14 days after the formulation treatments, the weed suppression rate (%) was determined according to the following equation (Math. 1). Weed suppression rate (%)=(1−an average dry weight (g) of plants in treated plots/an average dry weight (g) of plants in untreated plots)×100 [Math. 1]

Lindernia pyxidaria [2] = assay: as above; conditions: 120 g/10a, paddy soil treatment just after sowing, 14 days after treatment
Description: as §1, §2

Monochoria vaginalis [3] = assay: as above; conditions: 120 g/10a, paddy soil treatment just after sowing, 14 days after treatment
Description: as §1, §2

Scirpus juncoides [4] = assay: as above; conditions: 120 g/10a, paddy soil treatment just after sowing, 14 days after treatment
Description: as §1, §2

Echinochloa crus-galli [5] = assay: Test Example 2: herbicidal effect test by treatment during growing period in paddy field; conditions: treatment 7 days after sowing, 120 g/10a, evaluated 14 days after treatment
Method: as §2
as §1, with “greenhouse. Seven days” for “greenhouse. Just”, “after sowing,” for “after that,”, “Table 6” for “Table 5”, “are. The test was performed with two replications per one formulation concentration plot, and 14 days after the formulation treatments, the weed suppression rate (%) was determined according to the equation (Math. 1).” for “are.”

Lindernia pyxidaria [6] = assay: as above; conditions: treatment 7 days after sowing, 120 g/10a, evaluated 14 days after treatment
Method: as §2
as §1, with “greenhouse. Seven days” for “greenhouse. Just”, “after sowing,” for “after that,”, “Table 6” for “Table 5”, “are. The test was performed with two replications per one formulation concentration plot, and 14 days after the formulation treatments, the weed suppression rate (%) was determined according to the equation (Math. 1).” for “are.”

Monochoria vaginalis [7] = assay: as above; conditions: treatment 7 days after sowing, 120 g/10a, evaluated 14 days after treatment
Method: as §2
as §1, with “greenhouse. Seven days” for “greenhouse. Just”, “after sowing,” for “after that,”, “Table 6” for “Table 5”, “are. The test was performed with two replications per one formulation concentration plot, and 14 days after the formulation treatments, the weed suppression rate (%) was determined according to the equation (Math. 1).” for “are.”

Scirpus juncoides [8] = assay: as above; conditions: treatment 7 days after sowing, 120 g/10a, evaluated 14 days after treatment
Method: as §2
as §1, with “greenhouse. Seven days” for “greenhouse. Just”, “after sowing,” for “after that,”, “Table 6” for “Table 5”, “are. The test was performed with two replications per one formulation concentration plot, and 14 days after the formulation treatments, the weed suppression rate (%) was determined according to the equation (Math. 1).” for “are.”

| Compound | weed suppression rate, Echinochloa crus-galli (Echinochloa crus-galli [1]) | weed suppression rate, Lindemia pyxidaria (Lindernia pyxidaria [2]) | weed suppression rate, Monochoria vaginalis (Monochoria vaginalis [3]) | weed suppression rate, Scirpus juncoides (Scirpus juncoides [4]) | weed suppression rate, Echinochloa crus-galli (Echinochloa crus-galli [5]) | weed suppression rate, Lindemia pyxidaria (Lindernia pyxidaria [6]) | weed suppression rate, Monochoria vaginalis (Monochoria vaginalis [7]) | weed suppression rate, Scirpus juncoides (Scirpus juncoides [8]) |
| --- | --- | --- | --- | --- | --- | --- | --- | --- |
| CC(C)N(C(=O)n1ncn(S(=O)(=O)C2CCCCC2)c1=O)c1ccc(Cl)cc1F [Compound 1-314] | 100% | 100% | 80% | 100% | 90% | 100% | 90% | 100% |
| Cc1ccc(N(C(=O)n2ncn(S(=O)(=O)C3CCCCC3)c2=O)C(C)C)c(F)c1 [Compound 1-320] | 90% | 90% | 90% | 90% | 90% | 80% | 80% | 90% |
| Cc1ccc(N(C(=O)n2ncn(S(=O)(=O)C3CCCCC3)c2=O)C(C)C)c(Cl)c1 [Compound 1-322] | 90% | 90% | 90% | 90% | 90% | 80% | 80% | 90% |
| CC(C)N(C(=O)n1ncn(S(=O)(=O)C2CCCCC2)c1=O)c1ccc(C(F)(F)F)cc1F [Compound 1-323] | 100% | 100% | 80% | 100% | 100% | 70% | 70% | 70% |
| CC(C)N(C(=O)n1ncn(S(=O)(=O)C2CCCCC2)c1=O)c1ccc(C#N)cc1Cl [Compound 1-328] | 90% | 80% | 80% | 90% | 90% | 80% | 80% | 90% |
| CC(C)N(C(=O)n1ncn(S(=O)(=O)C2CCCCC2)c1=O)c1ccc(Cl)nc1 [Compound 1-338] | 100% | 90% | 90% | 100% | 90% | 80% | 80% | 90% |
| Cc1ccc(S(=O)(=O)n2cnn(C(=O)N(c3ccc(Cl)nc3Cl)C(C)C)c2=O)cc1 [Compound 1-690] | 100% | 100% | 90% | 90% | 100% | 90% | 90% | 90% |
| Cc1cc(C)c(S(=O)(=O)n2cnn(C(=O)N(c3cccnc3F)C(C)C)c2=O)c(C)c1 [Compound 1-921] | 90% | 80% | 60% | 70% | 80% | 80% | 60% | 70% |
| CC(C)N(C(=O)n1ncn(S(=O)(=O)c2cccs2)c1=O)c1ccc(F)cc1 [Compound 1-1052] | 90% | 80% | 80% | 90% | 90% | 80% | 80% | 90% |
| CC(C)N(C(=O)n1ncn(S(=O)(=O)N(C)C)c1=O)c1ccccc1F [Compound 1-1093] | 90% | 80% | 80% | 90% | 90% | 80% | 80% | 90% |
| CC(C)N(C(=O)n1ncn(S(=O)(=O)N(C)C)c1=O)c1cccnc1F [Compound 1-1128] | 90% | 90% | 60% | 70% | 90% | 90% | 60% | 70% |
| CC(C)N(C(=O)n1ncn(S(=O)(=O)N(C)C)c1=O)c1ccc(F)nc1 [Compound 1-1129] | 90% | 80% | 80% | 90% | 90% | 80% | 80% | 90% |
| CC(C)N(C(=O)n1ncn(S(=O)(=O)N(C)C)c1=O)c1ccc(Cl)nc1 [Compound 1-1135] | 90% | 90% | 60% | 90% | 90% | 60% | 70% | 90% |
